CO[C@@]1(NC(=O)Cc2cccs2)C(=O)N2C(C(=O)O)=C(COC(N)=O)CS[C@@H]21
solubility (mole fraction)
Details	278.15 K	283.15 K	288.15 K	293.15 K	298.15 K	303.15 K	308.15 K
in acetonitrile	0.000452	0.000491	0.000528	0.00058	0.000621	0.000677	0.00076
in ethanol	0.000403	0.000484	0.000603	0.000739	0.000852	0.00103	0.00118
in ethyl acetate	0.000229	0.000241	0.000257	0.000267	0.000282	0.000296	0.00032
in isopropanol	4.4e-05	7.19e-05	0.000109	0.000151	0.000186	0.000243	0.000314
in methanol	0.00565	0.00658	0.00772	0.00919	0.011	0.0129	0.0149
in n-propanol	0.000209	0.000253	0.000286	0.000338	0.000394	0.000492	0.000561

From BigSolDB 2.1
